B1: IL-10: exogenous interleukin-10, central anti-inflammatory mediator, injected through tail vein (protein, UniProt P22301 19-178, looked up)
Interleukin-10: SPGQGTQSENSCTHFPGNLPNMLRDLRDAFSRVKTFFQMKDQLDNLLLKESLLEDFKGYLGCQALSEMIQFYLEEVMPQAENQDPDIKAHVNSLGENLKTLRLRLRRCHRFLPCENKSKAVEQVKNAFNKLQEKGIYKAMSEFDIFINYIEAYMTMKIRN

Key:
[1] = test system: IMQ-induced psoriasiform inflammation in mice; experiment: IMQ-induced mouse model of psoriasis, treatment with CaMK4 inhibitor KN-93; assay type: in vivo; conditions: KN-93 0.24 mg per mouse, tail vein, vs PBS control
Description: (§1) An internationally used mouse model of psoriasis was used: 6-8-week-old C57BL/6 mice were given 5% IMQ applied to the shaved back skin of the mice at 62.5 mg per day for 5 days. The 6-8-week-old C57BL/6 mice were used as controls.
(§2) 1) The back skin thickness, scaling and erythema development of mice were observed on days 0 -5 after applying IMQ to the shaved back skin of mice. According to the clinical psoriasis area and severity index, the severity of back skin was evaluated by thickness, scaling and erythema. The back skin thickness was measured with vernier calipers. Scaling and erythema were scored on a scale ranging from 0-4: 0 represents none; 1 represents mild; 2 represents moderate; 3 represents significant; and 4 represents very significant.
2) Skin sections were prepared for staining with H&E, and the skin sections were stained by using the conventional universal H&E staining method.
(§3) 3) Statistical analysis of epidermal thickness. Specifically, H&E-stained sections were photographed in a double-blind manner and then measured for epidermal thickness.
5) The mRNA levels of IMQ induced mouse skin pathogenic factors were detected by quantitative PCR. The method was the same as that in the example 1.
62.5 mg of IMQ were applied to the shaved back skin of wild-type mice for 5 days. KN-93 (0.24 mg per mouse) or PBS was injected into mice through tail vein one hour before IMQ application on day 0 and day 2. Samples were collected on day 5 for subsequent experiments.

[2] = test system: IMQ-induced psoriasiform inflammation in mice; experiment: IMQ-induced mouse model of psoriasis, exogenous IL-10 injection; assay type: in vivo; conditions: IL-10 1 μg per mouse, tail vein, vs PBS control
Description: as §1, §2, §3
62.5 mg of IMQ were applied to the shaved back skin of wild-type (WT) mice for 5 days. IL-10 (1 μg per mouse) or PBS was injected into mice through tail vein on 1 h before IMQ application on day 0 and day 2. Samples were collected on day 5 for subsequent experiments.
1) The back skin thickness, scaling and erythema development of mice were observed on days 0 -5 after applying IMQ to the shaved back skin of mice, and scored. The method is the same as that in the example 2;
2) Statistical analysis of epidermal thickness was performed; the method is the same as that in the example 2.
3) The mRNA levels of IMQ induced mouse skin pathogenic factors were detected by quantitative PCR. The method was the same as that in the example 1.

| Molecule | scaling ([1]; day 0 and day 2) | skin thickness ([1]; day 0 and day 2) | psoriasiform phenotype ([1]; day 0 and day 2, IMQ 5 days) | epidermal thickness ([1]; H&E sections, day 5) | mRNA level of IL-10 in skin ([1]; day 5 skin) | proinflammatory cytokines (skin mRNA, quantitative PCR) ([1]; day 5 skin) | erythema ([2]; day 0 and day 2) | psoriasiform phenotype ([2]; day 0 and day 2) | scaling ([2]; day 0 and day 2) | skin thickness ([2]; day 0 and day 2) | epidermal thickness ([2]; day 5) | proinflammatory cytokines (skin mRNA, quantitative PCR) ([2]; day 5) |
| --- | --- | --- | --- | --- | --- | --- | --- | --- | --- | --- | --- | --- |
| COc1ccc(S(=O)(=O)N(CCO)c2ccccc2CN(C)C/C=C/c2ccc(Cl)cc2)cc1 [KN-93] | reduce | reduce | less than that of control mice | reduce | higher than that of control mice | reduce | – | – | – | – | – | – |
| B1 | – | – | – | – | – | – | reduced | attenuated | reduced | reduced | reduced | reduced |

From patent US12383519B2, “Application of CaMK4 in preparation of medicine for preventing and treating psoriasis” (priority 2021, dated 2025)
